“And” between values parts separate entries of the source, which are not always exact repeats. Equal entries are not always repeated. Inconclusive results and toxic doses are left out. No stated cut-off is given here; in the data, active means T/C of 150% or more; inactive means T/C below 125%.
Tested on: L1210 leukemia ip in BDF1 mice, survival T/C
Assay: NCI In Vivo Anticancer Drug Screen. Data for tumor model L1210 Leukemia (intraperitoneal) in B6D2F1 (BDF1) mice
Settings: endpoint: mean survival time, higher = longer survival
Procedure, shortened: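 Mice bearing the transplanted tumor received compound or vehicle. Survival of the treated group was divided by that of the vehicle-treated control group to give the ratio.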

[1] = dose: 100.0 mg/kg/injection, schedule: Q01DX001 (ip), vehicle: carboxymethylcellulose (CMC)
[2] = dose: 200.0 mg/kg/injection, schedule: Q01DX001 (ip), vehicle: carboxymethylcellulose (CMC)
[3] = dose: 400.0 mg/kg/injection, schedule: Q01DX001 (ip), vehicle: carboxymethylcellulose (CMC)
[4] = dose: 25.0 mg/kg/injection, schedule: Q04DX002 (ip), vehicle: saline with Tween-80
[5] = dose: 100.0 mg/kg/injection, schedule: Q04DX002 (ip), vehicle: saline with Tween-80
[6] = dose: 50.0 mg/kg/injection, schedule: Q01DX009 (ip), vehicle: saline with Tween-80
[7] = dose: 100.0 mg/kg/injection, schedule: Q01DX009 (ip), vehicle: saline with Tween-80
[8] = dose: 200.0 mg/kg/injection, schedule: Q01DX009 (ip), vehicle: saline with Tween-80
[9] = dose: 200.0 mg/kg/injection, schedule: Q01DX009 (ip), vehicle: Klucel (hydroxypropylcellulose) (HPC)
[10] = dose: 400.0 mg/kg/injection, schedule: Q01DX009 (ip), vehicle: Klucel (hydroxypropylcellulose) (HPC)
[11] = dose: 100.0 mg/kg/injection, schedule: Q04DX002 (ip), vehicle: Klucel (hydroxypropylcellulose) (HPC)
[12] = dose: 200.0 mg/kg/injection, schedule: Q04DX002 (ip), vehicle: Klucel (hydroxypropylcellulose) (HPC)

Measured: T/C

CCN(CC)CCSSCCN(CC)CC
inactive: dose: 50.0 mg/kg/injection, schedule: Q01DX001 (ip), vehicle: saline 88 % of control | dose: 100.0 mg/kg/injection, schedule: Q01DX001 (ip), vehicle: saline 96 % of control

CC(C)(c1ccccc1)[N+](C)(C)C
inactive: dose: 4.0 mg/kg/injection, schedule: Q01DX Z (ip), vehicle: saline 93 % of control | dose: 6.25 mg/kg/injection, schedule: Q01DX009 (ip), vehicle: saline 97 % of control | dose: 6.25 mg/kg/injection, schedule: Q04DX003 (ip), vehicle: saline 104 % of control | dose: 8.0 mg/kg/injection, schedule: Q01DX Z (ip), vehicle: saline 96 % of control | dose: 12.5 mg/kg/injection, schedule: Q01DX009 (ip), vehicle: saline 91 % of control | dose: 12.5 mg/kg/injection, schedule: Q04DX003 (ip), vehicle: saline 103 % of control | dose: 16.0 mg/kg/injection, schedule: Q01DX Z (ip), vehicle: saline 92 % of control | dose: 25.0 mg/kg/injection, schedule: Q01DX009 (ip), vehicle: saline 92 % of control | dose: 25.0 mg/kg/injection, schedule: Q04DX003 (ip), vehicle: saline 91 % of control

CCCOc1ccc(C2=C(c3ccccc3)C(=O)C(c3ccccc3)=C2c2ccccc2)cc1
inactive: [1] 94 % of control | [2] 100 % of control | [3] 94 % of control

CC(C)(C)C1CC=CCC1 (configuration not stated)
inactive: dose: 50.0 mg/kg/injection, schedule: Q01DX009 (ip), vehicle: saline sonified 96 % of control | dose: 100.0 mg/kg/injection, schedule: Q01DX009 (ip), vehicle: saline sonified 102 % of control | dose: 200.0 mg/kg/injection, schedule: Q01DX009 (ip), vehicle: saline sonified 100 % of control

CCCCCP(=O)(CCCCC)C1CCCC1
inactive: [4] 113 % of control | dose: 50.0 mg/kg/injection, schedule: Q04DX002 (ip), vehicle: saline with Tween-80 100 % of control | [5] 94 % of control and 90 % of control

C/C(=N\N=C(/C)c1ccc(O)cc1)c1ccc(O)cc1
inactive: [6] 96 % of control | [7] 92 % of control | [8] 89 % of control

CSc1nsc2nnc(N)n12
inactive: dose: 75.0 mg/kg/injection, schedule: Q01DX001 (ip), vehicle: saline 89 % of control | dose: 150.0 mg/kg/injection, schedule: Q01DX001 (ip), vehicle: saline 102 % of control

COC(=O)C[CH2][Ge]([CH3])([CH3])[CH3]
inactive: dose: 6.25 mg/kg/injection, schedule: Q04DX002 (ip), vehicle: saline with Tween-80 89 % of control | dose: 12.5 mg/kg/injection, schedule: Q04DX002 (ip), vehicle: saline with Tween-80 96 % of control | [4] 96 % of control | [5] 95 % of control | dose: 200.0 mg/kg/injection, schedule: Q04DX002 (ip), vehicle: saline with Tween-80 95 % of control | dose: 400.0 mg/kg/injection, schedule: Q04DX002 (ip), vehicle: saline with Tween-80 93 % of control

CCOC(=S)Sc1ccc2c(c1)-c1ccc(F)cc1C2=O
inactive: [1] 111 % of control | [2] 95 % of control | [3] 98 % of control

Cc1ccc(C(CC(=O)NN)NN)c(O)c1 (configuration not stated)
inactive: [6] 104 % of control | [7] 101 % of control | [8] 108 % of control

CCOC(=O)NS(=O)(=O)c1ccccc1
inactive: dose: 100.0 mg/kg/injection, schedule: Q01DX009 (ip), vehicle: Klucel (hydroxypropylcellulose) (HPC) 100 % of control | [9] 101 % of control | [10] 87 % of control

CNC1C(O)C(OC2C(N)CC(N)C(OC3OC(CN)=CCC3N)C2O)OCC1(C)O (configuration not stated)
inactive: dose: 63.5 mg/kg/injection, schedule: Q04DX002 (ip), vehicle: saline with Tween-80 90 % of control | dose: 125.0 mg/kg/injection, schedule: Q04DX002 (ip), vehicle: saline with Tween-80 97 % of control | dose: 250.0 mg/kg/injection, schedule: Q04DX002 (ip), vehicle: saline with Tween-80 87 % of control

CSc1nccc(=S)[nH]1
inactive: dose: 50.0 mg/kg/injection, schedule: Q04DX002 (ip), vehicle: Klucel (hydroxypropylcellulose) (HPC) 88 % of control | [11] 92 % of control | [12] 95 % of control

Cc1cccc2c1N=C(C(F)(F)F)CC2=O
inactive: dose: 75.0 mg/kg/injection, schedule: Q01DX001 (ip), vehicle: other 100 % of control | dose: 150.0 mg/kg/injection, schedule: Q01DX001 (ip), vehicle: other 96 % of control | dose: 300.0 mg/kg/injection, schedule: Q01DX001 (ip), vehicle: other 97 % of control

NC(=O)N(CCCO)/N=C\c1ccc([N+](=O)[O-])o1
inactive: [11] 100 % of control | [12] 96 % of control

CC1(C(N)=O)OCCO1
inactive: dose: 100.0 mg/kg/injection, schedule: Q04DX003 (ip), vehicle: saline 103 % of control | dose: 200.0 mg/kg/injection, schedule: Q04DX003 (ip), vehicle: saline 96 % of control | dose: 400.0 mg/kg/injection, schedule: Q04DX003 (ip), vehicle: saline 100 % of control

CCC(O)(C1=NC(C)(C)CO1)c1ccncc1Br (configuration not stated)
inactive: dose: 100.0 mg/kg/injection, schedule: Q01DX001 (ip), vehicle: Klucel (hydroxypropylcellulose) (HPC) 100 % of control | dose: 200.0 mg/kg/injection, schedule: Q01DX001 (ip), vehicle: Klucel (hydroxypropylcellulose) (HPC) 94 % of control | dose: 400.0 mg/kg/injection, schedule: Q01DX001 (ip), vehicle: Klucel (hydroxypropylcellulose) (HPC) 97 % of control

C[N+]1(CCCNC(=O)Nc2ccc(Cl)cc2)CCOCC1
inactive: dose: 12.5 mg/kg/injection, schedule: Q04DX002 (ip), vehicle: saline 105 % of control | dose: 25.0 mg/kg/injection, schedule: Q04DX002 (ip), vehicle: saline 102 % of control | dose: 50.0 mg/kg/injection, schedule: Q04DX002 (ip), vehicle: saline 97 % of control

CCOC(=O)c1nc(N)nc(N)c1-c1ccc(Cl)cc1
inactive: dose: 25.0 mg/kg/injection, schedule: Q01DX001 (ip), vehicle: saline with Tween-80 98 % of control | dose: 50.0 mg/kg/injection, schedule: Q01DX001 (ip), vehicle: saline with Tween-80 104 % of control | dose: 100.0 mg/kg/injection, schedule: Q01DX001 (ip), vehicle: saline with Tween-80 102 % of control

Cc1ccc(C(O)c2cnc(C)n2Cc2ccccc2)cc1 (configuration not stated)
inactive: dose: 100.0 mg/kg/injection, schedule: Q01DX009 (ip), vehicle: carboxymethylcellulose (CMC) 96 % of control | [11] 94 % of control | dose: 100.0 mg/kg/injection, schedule: Q04DX002 (ip), vehicle: carboxymethylcellulose (CMC) 94 % of control and 112 % of control | dose: 100.0 mg/kg/injection, schedule: Q04DX003 (ip), vehicle: carboxymethylcellulose (CMC) 107 % of control | dose: 200.0 mg/kg/injection, schedule: Q01DX009 (ip), vehicle: carboxymethylcellulose (CMC) 100 % of control and 107 % of control | [12] 109 % of control | dose: 200.0 mg/kg/injection, schedule: Q04DX002 (ip), vehicle: carboxymethylcellulose (CMC) 94 % of control and 98 % of control | dose: 200.0 mg/kg/injection, schedule: Q04DX003 (ip), vehicle: carboxymethylcellulose (CMC) 92 % of control | dose: 400.0 mg/kg/injection, schedule: Q01DX009 (ip), vehicle: carboxymethylcellulose (CMC) 96 % of control and 86 % of control | dose: 400.0 mg/kg/injection, schedule: Q04DX002 (ip), vehicle: Klucel (hydroxypropylcellulose) (HPC) 88 % of control | dose: 400.0 mg/kg/injection, schedule: Q04DX002 (ip), vehicle: carboxymethylcellulose (CMC) 94 % of control and 95 % of control | dose: 400.0 mg/kg/injection, schedule: Q04DX003 (ip), vehicle: carboxymethylcellulose (CMC) 96 % of control

O=C(O)/C=C/c1cccc(Br)c1
inactive: dose: 50.0 mg/kg/injection, schedule: Q01DX001 (ip), vehicle: carboxymethylcellulose (CMC) 101 % of control | [1] 97 % of control | [2] 97 % of control | [3] 101 % of control

COc1ccc(NC(=O)Nc2ccc(F)c([N+](=O)[O-])c2)c(Cl)c1
inactive: dose: 25.0 mg/kg/injection, schedule: Q01DX009 (ip), vehicle: saline with Tween-80 95 % of control | [6] 100 % of control | [7] 96 % of control

O=C(O)c1ccccc1C(=O)Nc1ccccc1F
inactive: dose: 100.0 mg/kg/injection, schedule: Q04DX003 (ip), vehicle: Klucel (hydroxypropylcellulose) (HPC) 97 % of control | [9] 86 % of control | dose: 200.0 mg/kg/injection, schedule: Q04DX003 (ip), vehicle: Klucel (hydroxypropylcellulose) (HPC) 92 % of control | [10] 91 % of control | dose: 400.0 mg/kg/injection, schedule: Q04DX003 (ip), vehicle: Klucel (hydroxypropylcellulose) (HPC) 91 % of control

— PubChem BioAssay AID248 (DTP/NCI, 2004)
